Data: patent US9358297B2, “Posaconazole intravenous solution formulations stabilized by substituted β-cyclodextrin” (Merck Sharp & Dohme Corp., priority 2010, dated 2016)
Converted amounts (≈) assume the structure as drawn. Read-outs that look alike come from different tables or passages of the source.

Experiments:
[1] = Posaconazole solubility in modified β and γ-cyclodextrins; assay type: physicochemical; conditions: for fold more posaconazole solubilized than Captisol: 100 mM cyclodextrin solutions; for solubility: pH 4.5, aqueous with cosolvent or surfactant or cyclodextrin
Protocol: The solubilities of posaconazole in each of several modified β and γ-cyclodextrins were evaluated. Solubilization of posaconazole was tested with three gamma cyclodextrins; SBE (5.2)-gamma, SBE (5.2) Et (3.9)-gamma and SBE (5.2) Et (4.9)-gamma cyclodextrin, (CyDex, Inc.).
On the other hand, some changes in β-cyclodextrin substitutions did lead to greater solubilization. Utilizing 100 mM cylodextrin solutions at pH 4.5, solubilization of posaconazole with SBE (4.6)-β, SBE (4.6)-Et (3.5)-β and SBE (4.6)-Et (8.5)-β cyclodextrins, versus Captisol®, was evaluated. The SBE (4.6)-Et (3.5)-β and SBE (4.6)-Et (8.5)-β cyclodextrins solubilized 2.6 and 6.6 fold more posaconazole (respectively) than did Captisol® (See FIG. 2). However, the extensive Captisol® safety information outweighed the potential benefits of greater solubilization and, for this reason, formulations with other sulfobutyl ether cyclodextrins were not further developed.

[2] = in water; cited from earlier work
[3] = Posaconazole solubility in acidified Captisol solutions; assay type: physicochemical; conditions: for solubility: acidified Captisol solution
Protocol: In an effort to evaluate the range of posaconazole solubilities that could be achieved at feasible pH's, a series of solutions was prepared with a fixed Captisol® concentration. Utilizing an acidic solution of 20% Captisol® (w/v), the solubility of posaconazole was increased more than 1000 times and it was determined that a target concentration of 5 mg/mL could be achieved.
Posaconazole solubility was also evaluated in acidified solutions with different Captisol® concentrations. […] Therefore, at some pH values, as the Captisol® concentration increases, the ratio of Captisol® to solubilized posaconazole will decrease. Based on this solubility effect, a formulation could be developed whereby for the same posaconazole daily dosage, the daily dose of Captisol® could be decreased.
Hydrochloric acid was used as an acidifier in the posaconazole formulation. However, several additional acidifiers (i.e., citric, sulfuric, maleic, phosphoric, acetic, L-tartaric, D-tartaric, DL-tartaric, methanesulfonic, naphthalenesulfonic, p-toluenesulfonic, lactic, L-lactic, L-ascorbic and malic acid, as well as, glycine hydrochloride) were also evaluated in regard to posaconazole solubilization.

[4] = Effect of co-solvents and non-ionic surfactants on posaconazole solubility in 100 mM Captisol; assay type: physicochemical; conditions: pH 4.5, aqueous with cosolvent or surfactant or cyclodextrin, thermodynamic from solid
Protocol: In an effort to explore further improvements to the formulation, the effects of various co-solvents and non-ionic surfactants, on the solubility of posaconazole in a 100 mM Captisol® solution, were examined. The Captisol® solutions were adjusted with HCl to pH 4.5 and an appropriate amount of co-solvent was added. An excess amount of posaconazole was added to the pH-adjusted cyclodextrin/co-solvent solution and the solutions were allowed to equilibrate for a period of three days. The contents of the vials were then centrifuged and the supernatant was assayed for posaconazole.

[5] = neutral and basic aqueous solutions; cited from earlier work

SBE (4.6)-Et (8.5)-β cyclodextrin
fold more posaconazole solubilized than Captisol ([1]; pH 4.5): 6.6 fold

Sulfobutyl ether-β-cyclodextrins, (SBE-β-CD) sodium salt [Captisol®]
solubility [2]: >800 mg/mL in water

CC[C@@H]([C@H](C)O)n1ncn(-c2ccc(N3CCN(c4ccc(OC[C@@H]5CO[C@@](Cn6cncn6)(c6ccc(F)cc6F)C5)cc4)CC3)cc2)c1=O [Posaconazole, posaconazole]
solubility ([3]; pH 3, aqueous with cosolvent or surfactant or cyclodextrin, 20% Captisol, pH 3.0): 8700 µg/mL (≈ 12.4 mM)
solubility ([3]; pH 3.1, aqueous with cosolvent or surfactant or cyclodextrin, 20% Captisol, pH 3.1, calculated average of measured solubility at pH 3.0 and pH 3.2): 7800 µg/mL (≈ 11.1 mM)
solubility ([3]; pH 3.1, aqueous with cosolvent or surfactant or cyclodextrin, 40% Captisol, pH 3.1): 22500 µg/mL (≈ 32.1 mM)
solubility ([3]; pH 3.2, aqueous with cosolvent or surfactant or cyclodextrin, 20% Captisol, pH 3.2): 6900 µg/mL (≈ 9.85 mM)
solubility ([3]; pH 3.4, aqueous with cosolvent or surfactant or cyclodextrin, 20% Captisol, pH 3.4): 5200 µg/mL (≈ 7.42 mM)
solubility ([3]; pH 3.6, aqueous with cosolvent or surfactant or cyclodextrin, 20% Captisol, pH 3.6): 4000 µg/mL (≈ 5.71 mM)
solubility ([3]; pH 3.8, aqueous with cosolvent or surfactant or cyclodextrin, 20% Captisol, pH 3.8): 3100 µg/mL (≈ 4.42 mM)
posaconazole solubilization with additional acidifiers versus hydrochloric acid ([3]; citric, sulfuric, maleic, phosphoric, acetic, tartaric, sulfonic, lactic, ascorbic, malic acids, glycine hydrochloride, same pH): no improvement in solubility
solubility at 3 days ([4]; Captisol solution with co-solvent, 100 mM Captisol pH 4.5 + 10% PEG 400): 1280 µg/mL
solubility at 3 days ([4]; Captisol solution with co-solvent, 100 mM Captisol pH 4.5 + 10% PVP): 640 µg/mL
solubility at 3 days ([4]; Captisol solution with co-solvent, 100 mM Captisol pH 4.5 + 10% Propylene Glycol): 410 µg/mL
solubility at 3 days ([4]; Captisol solution with surfactant, 100 mM Captisol pH 4.5 + 0.1% Poloxamer F-68): 1630 µg/mL
solubility at 3 days ([4]; Captisol solution with surfactant, 100 mM Captisol pH 4.5 + 0.1% Tween 20): 1710 µg/mL
solubility at 3 days ([4]; Captisol solution with surfactant, 100 mM Captisol pH 4.5 + 0.1% Tween 80): 1740 µg/mL
solubility at 3 days ([4]; Captisol solution, Control (100 mM Captisol), pH 4.5, three days equilibration): 1770 µg/mL (≈ 2.53 mM)
fold less solubility with gamma cyclodextrins than with Captisol ([1]; pH 4.5): approximately 8 fold
solubility ([1]; highest posaconazole solubility achieved): 189 µg/mL (≈ 0.27 mM)
solubility ([1]; posaconazole solubility): 1510 µg/mL (≈ 2.15 mM)
solubility [5]: less than 1 μg/mL

SBE (4.6)-Et (3.5)-β cyclodextrin
fold more posaconazole solubilized than Captisol ([1]; pH 4.5): 2.6 fold
